Test results taken from US12077503B2, “Substituted cyclic amides and their use as herbicides” (FMC CORPORATION, priority 2015, dated 2024).

How the values were obtained:
Type in all cases: in vivo
[1] = system: Galium (catchweed bedstraw, Galium aparine); experiment: Test A postemergence
Procedure, shortened: (§1)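 Preemergence directed soil spray on seeded pots, or postemergence application to plants 2–10 cm, one- to two-leaf. Solvent mixture non-phytotoxic, with surfactant. Scored ~10 d later, visually, 0–100 vs untreated.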

[2] = system: Kochia (Kochia scoparia); experiment: Test A postemergence
Procedure, shortened: as §1

[3] = system: wheat (Triticum aestivum); experiment: Test A postemergence
Procedure, shortened: as §1

[4] = system: blackgrass (Alopecurus myosuroides); experiment: Test A postemergence
Procedure, shortened: as §1

[5] = system: giant foxtail (Setaria faberii); experiment: Test A postemergence
Procedure, shortened: as §1

[6] = system: corn (Zea mays); experiment: Test A postemergence
Procedure, shortened: as §1

[7] = system: ryegrass, Italian (Italian ryegrass, Lolium multiflorum); experiment: Test A postemergence
Procedure, shortened: as §1

[8] = system: ragweed (common ragweed, Ambrosia elatior); experiment: Test A postemergence
Procedure, shortened: as §1

[9] = system: barnyardgrass (Echinochloa crus-galli); experiment: Test A postemergence
Procedure, shortened: as §1

[10] = system: pigweed (Amaranthus retroflexus); experiment: Test A postemergence
Procedure, shortened: as §1

[11] = system: sedge, umbrella (small-flower umbrella sedge, Cyperus difformis); experiment: Test B flooded paddy test; conditions: Flood, 250 g ai/ha; 0 to 100 scale where 0 is no effect and 100 is complete control; 13 to 15 d
Procedure, shortened: (§2)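 Greenhouse paddy pots with 2-leaf stage plants received compound by direct addition to floodwater 3 cm deep, kept at that level. Scored visually at 13–15 d versus controls (0 no effect; 100 complete control).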

[12] = system: rice (Oryra sativa); experiment: Test B flooded paddy test; conditions: Flood, 250 g ai/ha; 0 to 100 scale where 0 is no effect and 100 is complete control; 13 to 15 d
Procedure, shortened: as §2

[13] = system: ducksalad (Heteranthera limosa); experiment: Test B flooded paddy test; conditions: Flood, 250 g ai/ha; 0 to 100 scale where 0 is no effect and 100 is complete control; 13 to 15 d
Procedure, shortened: as §2

[14] = system: barnyardgrass (Echinochloa crus-galli); experiment: Test B flooded paddy test; conditions: Flood, 250 g ai/ha; 0 to 100 scale where 0 is no effect and 100 is complete control; 13 to 15 d
Procedure, shortened: as §2

[15] = system: Kochia (Kochia scoparia); experiment: Test A preemergence; conditions: for Kochia plant response rating (0 to 100 scale, 0 is no effect, 100 is complete control): visual injury approx. 10 d
Procedure, shortened: as §1

[16] = system: giant foxtail (Setaria faberii); experiment: Test A preemergence; conditions: for Foxtail, Giant plant response rating (0 to 100 scale, 0 is no effect, 100 is complete control): visual injury approx. 10 d
Procedure, shortened: as §1

[17] = system: ryegrass, Italian (Italian ryegrass, Lolium multiflorum); experiment: Test A preemergence; conditions: for Ryegrass, Italian plant response rating (0 to 100 scale, 0 is no effect, 100 is complete control): visual injury approx. 10 d
Procedure, shortened: as §1

[18] = system: ragweed (common ragweed, Ambrosia elatior); experiment: Test A preemergence; conditions: for Ragweed plant response rating (0 to 100 scale, 0 is no effect, 100 is complete control): visual injury approx. 10 d
Procedure, shortened: as §1

[19] = system: barnyardgrass (Echinochloa crus-galli); experiment: Test A preemergence; conditions: for Barnyardgrass plant response rating (0 to 100 scale, 0 is no effect, 100 is complete control): visual injury approx. 10 d
Procedure, shortened: as §1

[20] = system: pigweed (Amaranthus retroflexus); experiment: Test A preemergence; conditions: for Pigweed plant response rating (0 to 100 scale, 0 is no effect, 100 is complete control): visual injury approx. 10 d
[21] = 125 g ai/ha, postemergence, visual rating after approx. 10 d, 0 to 100 scale (0 no effect, 100 complete control)
[22] = Postemergence, 500 g ai/ha, 0 to 100 scale where 0 is no effect and 100 is complete control
[23] = 125 g ai/ha, Preemergence, visual injury after approximately 10 d, 0 to 100 scale where 0 is no effect and 100 is complete control
[24] = 500 g ai/ha, preemergence, 0 to 100 scale, 0 = no effect, 100 = complete control

| SMILES | Plant response rating, Galium [1, 21] | Plant response rating, Galium [1, 22] | Plant response rating, Kochia [2, 21] | Plant response rating, Kochia [2, 22] | Plant response rating, Wheat [3, 21] | Plant response rating, Wheat [3, 22] | Plant response rating, Blackgrass [4, 21] | Plant response rating, Blackgrass [4, 22] | Plant response rating, Foxtail, Giant [5, 21] | Plant response rating, Foxtail, Giant [5, 22] | Plant response rating, Corn [6, 21] | Plant response rating, Corn [6, 22] | Plant response rating, Ryegrass, Italian [7, 21] | Plant response rating, Ryegrass, Italian [7, 22] | Plant response rating, Ragweed [8, 21] | Plant response rating, Ragweed [8, 22] | Plant response rating, Barnyardgrass [9, 21] | Plant response rating, Barnyardgrass [9, 22] | Plant response rating, Pigweed [10, 21] | Plant response rating, Pigweed [10, 22] | also measured |
| --- | --- | --- | --- | --- | --- | --- | --- | --- | --- | --- | --- | --- | --- | --- | --- | --- | --- | --- | --- | --- | --- |
| O=C(Nc1ccccc1F)C1C(=O)N(c2ccc([N+](=O)[O-])cc2)CC1c1cccc(C(F)(F)F)c1 (stereo not drawn) [Compound 602] | 0 | 0 | 0 | 0 | 0 | 0 | 0 | 0 | 0 | 0 | 0 | 0 | 0 | 0 | 0 | 0 | 0 | 0 | 0 | 0 | Plant response rating, Sedge, Umbrella [11]: 0; Plant response rating, Rice [12]: 0; Plant response rating, Ducksalad [13]: 30; Plant response rating, Barnyardgrass [14]: 0; Plant response rating, Kochia [15, 23]: 0; Kochia plant response rating (0 to 100 scale, 0 is no effect, 100 is complete control) ([15]; Preemergence, 500 g ai/ha): 0; Plant response rating, Foxtail, Giant [16, 23]: 0; Foxtail, Giant plant response rating (0 to 100 scale, 0 is no effect, 100 is complete control) ([16]; Preemergence, 500 g ai/ha): 0; Plant response rating, Ryegrass, Italian [17, 23]: 0; Ryegrass, Italian plant response rating (0 to 100 scale, 0 is no effect, 100 is complete control) ([17]; Preemergence, 500 g ai/ha): 0; Plant response rating, Ragweed [18, 23]: 0; Ragweed plant response rating (0 to 100 scale, 0 is no effect, 100 is complete control) ([18]; Preemergence, 500 g ai/ha): 0; Plant response rating, Barnyardgrass [19, 23]: 0; Barnyardgrass plant response rating (0 to 100 scale, 0 is no effect, 100 is complete control) ([19]; Preemergence, 500 g ai/ha): 0; Plant response rating, Pigweed [20, 23]: 0; Pigweed plant response rating (0 to 100 scale, 0 is no effect, 100 is complete control) ([20]; Preemergence, 500 g ai/ha): 0 |
| C=CCN1CC(c2cccc(C(F)(F)F)c2)C(C(=O)Nc2ccccc2F)C1=O (stereo not drawn) [Compound 605] | 0 | 0 | 0 | 0 | 0 | 30 | 0 | 20 | 20 | 80 | 0 | 0 | 0 | 0 | 0 | 0 | 0 | 80 | 0 | 0 | Plant response rating, Sedge, Umbrella [11]: 0; Plant response rating, Rice [12]: 0; Plant response rating, Ducksalad [13]: 50; Plant response rating, Barnyardgrass [14]: 0; Plant response rating, Kochia [15, 23]: 0; Kochia plant response rating (0 to 100 scale, 0 is no effect, 100 is complete control) ([15]; Preemergence, 500 g ai/ha): 0; Plant response rating, Foxtail, Giant [16, 23]: 90; Foxtail, Giant plant response rating (0 to 100 scale, 0 is no effect, 100 is complete control) ([16]; Preemergence, 500 g ai/ha): 90; Plant response rating, Ryegrass, Italian [17, 23]: 0; Ryegrass, Italian plant response rating (0 to 100 scale, 0 is no effect, 100 is complete control) ([17]; Preemergence, 500 g ai/ha): 20; Plant response rating, Ragweed [18, 23]: 0; Ragweed plant response rating (0 to 100 scale, 0 is no effect, 100 is complete control) ([18]; Preemergence, 500 g ai/ha): 0; Plant response rating, Barnyardgrass [19, 23]: 30; Barnyardgrass plant response rating (0 to 100 scale, 0 is no effect, 100 is complete control) ([19]; Preemergence, 500 g ai/ha): 70; Plant response rating, Pigweed [20, 23]: 0; Pigweed plant response rating (0 to 100 scale, 0 is no effect, 100 is complete control) ([20]; Preemergence, 500 g ai/ha): 0 |
| CN1CC(c2cccc(OC(F)F)c2)C(C)(C(=O)Nc2cccc(F)c2F)C1=O (stereo not drawn) [Compound 619] | 0 | 0 | 0 | 0 | 0 | 0 | 0 | 0 | 0 | 0 | 0 | 0 | 0 | 0 | 0 | 0 | 0 | 0 | 0 | 0 | Plant response rating, Sedge, Umbrella [11]: 0; Plant response rating, Rice [12]: 0; Plant response rating, Ducksalad [13]: 0; Plant response rating, Barnyardgrass [14]: 0; Plant response rating, Kochia [15, 23]: 20; Plant response rating, Kochia [15, 24]: 20; Plant response rating, Foxtail, Giant [16, 23]: 0; Plant response rating, Foxtail, Giant [16, 24]: 0; Plant response rating, Ryegrass, Italian [17, 23]: 0; Plant response rating, Ryegrass, Italian [17, 24]: 0; Plant response rating, Ragweed [18, 23]: 0; Plant response rating, Ragweed [18, 24]: 0; Plant response rating, Barnyardgrass [19, 23]: 0; Plant response rating, Barnyardgrass [19, 24]: 0; Plant response rating, Pigweed [20, 23]: 0; Plant response rating, Pigweed [20, 24]: 0 |
| N#Cc1cccc(C2CNC(=O)C2C(=O)Nc2cccc(F)c2F)c1 (stereo not drawn) [Compound 621] | 30 | 40 | 0 | 20 | 0 | 50 | 0 | 20 | 70 | 90 | 0 | 20 | 0 | 20 | 0 | 0 | 90 | 90 | 0 | 0 | Plant response rating, Sedge, Umbrella [11]: 0; Plant response rating, Rice [12]: 20; Plant response rating, Ducksalad [13]: 100; Plant response rating, Barnyardgrass [14]: 50; Plant response rating, Kochia [15, 23]: 0; Plant response rating, Kochia [15, 24]: 40; Plant response rating, Foxtail, Giant [16, 23]: 90; Plant response rating, Foxtail, Giant [16, 24]: 90; Plant response rating, Ryegrass, Italian [17, 23]: 0; Plant response rating, Ryegrass, Italian [17, 24]: 40; Plant response rating, Ragweed [18, 23]: 0; Plant response rating, Ragweed [18, 24]: 90; Plant response rating, Barnyardgrass [19, 23]: 90; Plant response rating, Barnyardgrass [19, 24]: 90; Plant response rating, Pigweed [20, 23]: 0; Plant response rating, Pigweed [20, 24]: 20 |
